Test results from patent US20110166030A1, “Prediction of response to docetaxel therapy based on the presence of TMPRSSG2:ERG fusion in circulating tumor cells” (priority 2009, published 2011).

Tests used:
[1] = system: metastatic prostate cancer; test: Response to therapy in metastatic androgen-independent prostate cancer patients (reduction in PSA levels); type: in vivo, human
Excerpt: Thus, disclosed herein is a method of expression profiling of gene of interest in CTCs using real time quantitative RT-PCR. Briefly, in a proof of concept, in total RNA isolated from circulating tumor cells of each of 40 metastatic prostate cancer patients gene expression profiles of 14 candidate genes were investigated by real time quantitative RT-PCR. […] Based on this application of RT-PCR based detection of the TMPRSS2-ERG fusion gene expression, patients are stratified for effective treatment with docetaxel chemotherapy, with an overall improvement in disease outcome and quality of life with very high specificity.
Briefly, the 40 subjects were recruited from the Cedars-Sinai Medical Center in Los Angeles. Appropriate IRB approvals were obtained prior to patient sample collection. The inclusion criteria consisted of: patient must be at least 18 years old and with clinical diagnosis of Stage IV (metastatic) prostate cancer; patients must provide written consent/authorization to participate in this study, no signs or symptoms of active infection, willing and able to comply with procedures required in this protocol.
All patients were receiving treatments at Cedars-Sinai Medical Center at Los Angeles and all have metastatic prostate cancers. […]

[2] = system: castration resistant prostate cancer (CRPC); test: CEC, CTC, ET-1 and TF levels during docetaxel treatment of CRPC patients; type: in vivo, human
Protocol: Blood samples were collected from 231 patients with CRPC by venesection into 2×10 mL CellSave tubes (Veridex, LLC, Raritan, N.J.) and 1×6 mL serum tube in a multi-center prospective study. One CellSave tube was used to determine the number of CTC for prediction of OS. Results on CTC levels measured in this group have been previously published. The second collected CellSave tube was used to determine CEC numbers.
In order to assess a homogenous group of patients with respect to systemic therapy, we selected all who were scheduled to receive docetaxel or a docetaxel containing regimen (n=162) from the 231 patients. Treatment was continued until progression or unacceptable toxicity. Main eligibility criteria included age ≧18 years, pathological diagnosis of adenocarcinoma of the prostate, first or later line of chemotherapy, serum testosterone <1.7 nmol/L ([…]), Eastern Cooperative Oncology Group (ECOG) performance status 0-2, pretreatment serum PSA≧5 ng/mL, PSA progression (rises above a reference value) despite androgen deprivation therapy, and ability to sign informed consent. This study was approved by the local Institutional Medical Ethical Review Boards and is in agreement with the Helsinki declaration of 2000. Written informed consent was obtained from all patients prior to participation.
CEC and CTC counts were determined prior to initiation of chemotherapy and after 2-5 weeks (first follow-up draw) and 6-8 weeks (second follow-up draw) of treatment. Serum concentrations of ET-1 and TF were also determined at these same time points.
The CellTracks® AutoPrep® and CellTracks Analyzer II® Systems (both Veridex, LLC, Raritan, N.J.) were used to count CTC and CEC. CTC were defined as intact cells positive for the nuclear stain 4′ 6-diamidinophenylindole (DAPI), the epithelial cell adhesion molecule (EpCAM), and for cytokeratins 8, 18 and 19 that also lacked expression of the panleukocyte marker CD45. CEC were identified as intact cells positive for DAPI, CD146 and CD105 that also lacked expression of CD45.
The technical details of both assays have been published previously. […]
Serum concentrations (pg/mL) of ET-1 and TF-1 were determined by ELISA. […] Absorbance was read at 450 nm using a Titertek 212 MS microplate reader (Titertek, Huntsville, Ala.). […]
Longitudinal biomarker data were analyzed using a random effects linear regression model using the maximum likelihood random effects estimator (the “xtreg, mle” command in STATA). […] To determine a cutoff value for survival analysis of CEC numbers and serum concentrations of ET-1 and TF, patient data were first stratified according percentiles (p0-p25; p25-p50, p50-p75, and p75-p100), in which either their baseline value or the change between baseline values and those determined at 2-5 weeks would fall. […]

CC(=O)O[C@@]12CO[C@@H]1C[C@H](O)[C@@]1(C)C(=O)[C@H](O)C3=C(C)[C@@H](OC(=O)[C@H](O)[C@@H](NC(=O)OC(C)(C)C)c4ccccc4)C[C@@](O)([C@@H](OC(=O)c4ccccc4)[C@H]21)C3(C)C [Docetaxel]
Response to treatment, Number of Patients ([1]; 40 metastatic prostate cancer patients, Tax 14 patients, Tax + RAD 11 patients treated): 7
Patients with T1E4 or T2E4 fusion gene expression in CTCs who responded to the therapy ([1]; five fusion-positive patients received Docetaxel-based therapy (Docetaxel or Docetaxel plus RAD001)): 5 patients
Change in CTC numbers ([2]; after 2-5 weeks of treatment, cells/7.5 mL blood): decreased significantly
Change in serum TF ([2]; after 6-8 weeks of therapy vs baseline and first follow-up draw, ELISA): significant decrease
Serum concentrations of ET-1 during treatment ([2]; baseline, 2-5 and 6-8 weeks, ELISA): remained constant
Change in CEC numbers vs baseline ([2]; first follow-up draw, 2-5 weeks after initiation of docetaxel, cells/4.0 mL blood): significant increase
